According to PubChem BioAssay AID1918931 (Molecular Pharmacology Branch, DTP, NCI, 2023):

Test system: 138582-337-R-J1-PDC complex spheroid viability
Assay: Anticancer human tumor 138582-337-R-J1-PDC patient-derived Merkel cell tumor cell line growth inhibition
Settings: for IC50: curve of first compound; for viability, T/C: stronger effect = lower value
Method in brief: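 Multicellular complex spheroids of tumor cells with human endothelial cells (HUVEC) and mesenchymal stem cells; the LSD1 inhibitor iadademstat was combined with standard-of-care or investigational agents. Top concentration at or near clinical Cmax, half-log dilutions; final DMSO ≤0.25%.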
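Note: spheroids exposed to agents for 7 days.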
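Throughout, for viability, T/C: 100% = DMSO vehicle control viability.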

COc1cc(Nc2ncc3c(n2)-c2ccc(Cl)cc2C(c2c(F)cccc2OC)=NC3)ccc1C(=O)O + NC1CCC(NC2CC2c2ccccc2)CC1
IC50 (second compound 0.1 µM): > 1 µM | IC50 (second compound 0.316 µM): > 1 µM | IC50 (second compound 1 µM): > 1 µM | IC50 (second compound 3.16 µM): > 1 µM | IC50 (second compound 10 µM): > 1 µM | viability, T/C (second compound 0.1 µM, first compound 0.00316 µM): 89.6% | viability, T/C (second compound 0.1 µM, first compound 0.01 µM): 97.8% | viability, T/C (second compound 0.1 µM, first compound 0.0316 µM): 85.2% | viability, T/C (second compound 0.1 µM, first compound 0.1 µM): 83.3% | viability, T/C (second compound 0.1 µM, first compound 0.316 µM): 93% | viability, T/C (second compound 0.1 µM, first compound 1 µM): 88.3% | viability, T/C (second compound 0.316 µM, first compound 0.00316 µM): 99.2% | viability, T/C (second compound 0.316 µM, first compound 0.01 µM): 91.4% | viability, T/C (second compound 0.316 µM, first compound 0.0316 µM): 91.4% | viability, T/C (second compound 0.316 µM, first compound 0.1 µM): 86.8% | viability, T/C (second compound 0.316 µM, first compound 0.316 µM): 98.2% | viability, T/C (second compound 0.316 µM, first compound 1 µM): 90.1% | viability, T/C (second compound 1 µM, first compound 0.00316 µM): 89.6% | viability, T/C (second compound 1 µM, first compound 0.01 µM): 93.3% | viability, T/C (second compound 1 µM, first compound 0.0316 µM): 88.1% | viability, T/C (second compound 1 µM, first compound 0.1 µM): 98% | viability, T/C (second compound 1 µM, first compound 0.316 µM): 96.3% | viability, T/C (second compound 1 µM, first compound 1 µM): 84.1% | viability, T/C (second compound 3.16 µM, first compound 0.00316 µM): 98.2% | viability, T/C (second compound 3.16 µM, first compound 0.01 µM): 94.9% | viability, T/C (second compound 3.16 µM, first compound 0.0316 µM): 87.1% | viability, T/C (second compound 3.16 µM, first compound 0.1 µM): 78.9% | viability, T/C (second compound 3.16 µM, first compound 0.316 µM): 74.7% | viability, T/C (second compound 3.16 µM, first compound 1 µM): 83% | viability, T/C (second compound 10 µM, first compound 0.00316 µM): 99.9% | viability, T/C (second compound 10 µM, first compound 0.01 µM): 98.6% | viability, T/C (second compound 10 µM, first compound 0.0316 µM): 90.5% | viability, T/C (second compound 10 µM, first compound 0.1 µM): 76.9% | viability, T/C (second compound 10 µM, first compound 0.316 µM): 87.2% | viability, T/C (second compound 10 µM, first compound 1 µM): 74.2%

O=C(C=Cc1cccc(S(=O)(=O)Nc2ccccc2)c1)NO + NC1CCC(NC2CC2c2ccccc2)CC1
IC50 (second compound 0.1 µM): 0.58 µM | IC50 (second compound 0.316 µM): 0.678 µM | IC50 (second compound 1 µM): 0.562 µM | IC50 (second compound 3.16 µM): 0.483 µM | IC50 (second compound 10 µM): 0.408 µM | viability, T/C (second compound 0.1 µM, first compound 0.00949 µM): 82.7% | viability, T/C (second compound 0.1 µM, first compound 0.03 µM): 90.2% | viability, T/C (second compound 0.1 µM, first compound 0.0949 µM): 96% | viability, T/C (second compound 0.1 µM, first compound 0.3 µM): 75.3% | viability, T/C (second compound 0.1 µM, first compound 0.949 µM): 30.4% | viability, T/C (second compound 0.1 µM, first compound 3 µM): 2.19% | viability, T/C (second compound 0.316 µM, first compound 0.00949 µM): 69.6% | viability, T/C (second compound 0.316 µM, first compound 0.03 µM): 89.3% | viability, T/C (second compound 0.316 µM, first compound 0.0949 µM): 95.8% | viability, T/C (second compound 0.316 µM, first compound 0.3 µM): 93.6% | viability, T/C (second compound 0.316 µM, first compound 0.949 µM): 34.7% | viability, T/C (second compound 0.316 µM, first compound 3 µM): 2.29% | viability, T/C (second compound 1 µM, first compound 0.00949 µM): 85.3% | viability, T/C (second compound 1 µM, first compound 0.03 µM): 92.6% | viability, T/C (second compound 1 µM, first compound 0.0949 µM): 97.8% | viability, T/C (second compound 1 µM, first compound 0.3 µM): 66.5% | viability, T/C (second compound 1 µM, first compound 0.949 µM): 34.1% | viability, T/C (second compound 1 µM, first compound 3 µM): 1.94% | viability, T/C (second compound 3.16 µM, first compound 0.00949 µM): 76.5% | viability, T/C (second compound 3.16 µM, first compound 0.03 µM): 92.3% | viability, T/C (second compound 3.16 µM, first compound 0.0949 µM): 79.5% | viability, T/C (second compound 3.16 µM, first compound 0.3 µM): 64.7% | viability, T/C (second compound 3.16 µM, first compound 0.949 µM): 28.7% | viability, T/C (second compound 3.16 µM, first compound 3 µM): 0.44% | viability, T/C (second compound 10 µM, first compound 0.00949 µM): 73.9% | viability, T/C (second compound 10 µM, first compound 0.03 µM): 77.6% | viability, T/C (second compound 10 µM, first compound 0.0949 µM): 82.2% | viability, T/C (second compound 10 µM, first compound 0.3 µM): 52.3% | viability, T/C (second compound 10 µM, first compound 0.949 µM): 29.9% | viability, T/C (second compound 10 µM, first compound 3 µM): 0.47%
